# Data published in patent publication US20240352145A1, “EFFICACY OF ANTI-TROP-2-SN-38 ANTIBODY DRUG CONJUGATES FOR THERAPY OF TUMORS RELAPSED/REFRACTORY TO CHECKPOINT INHIBITORS” (Immunomedics, Inc., priority 2016, published 2024).
# pIC50: −log10 of the molar value. Like-named read-outs stand apart in the source and are kept apart here.
# Legend:
# small-cell lung cancer = format: in vivo, human
# Text: This is a person with a diagnosis of small-cell lung cancer, involving their left lung, mediastinal lymph nodes, and MRI evidence of a metastasis to the left parietal brain lobe. Prior chemotherapy includes carboplatin, etoposide, and topotecan, but with no response noted. Radiation therapy also fails to control their disease.
# [1] = Cardillo et al., 2011; cited from earlier work
# Capan-1 tumors = assay: Capan-1 xenograft therapy; format: in vivo, mouse; details: 0.2 mg/kg SN-38 twice weekly x 4 weeks
# Method: NCr female athymic nude (nu/nu) mice, 4 to 8 weeks old, and male Swiss-Webster mice, 10 weeks old, were purchased from Taconic Farms. Tolerability studies were performed in Cynomolgus monkeys (Macaca fascicularis; 2.5-4 kg male and female) by SNBL USA, Ltd. Animals were implanted subcutaneously with different human cancer cell lines. Tumor volume (TV) was determined by measurements in 2 dimensions using calipers, with volumes defined as: L×w^2/2, where L is the longest dimension of the tumor and w is the shortest. […] This dosing frequency reflected a consideration of the conjugate's serum half-life […], to allow a more continuous exposure to the ADC.
# Statistics—Growth curves are shown as percent change in initial TV over time. Statistical analysis of tumor growth was based on area under the curve (AUC). Profiles of individual tumor growth were obtained through linear-curve modeling. An f-test was employed to determine equality of variance between groups before statistical analysis of growth curves. A 2-tailed t-test was used to assess statistical significance between the various treatment groups and controls, except for the saline control, where a 1-tailed t-test was used (significance at P≤0.05). Statistical comparisons of AUC were performed only up to the time that the first animal within a group was euthanized due to progression.
# PARP = assay: Immunoblotting, apoptosis signaling, NCI-N87 and BxPC-3; format: cell-based, human; details: evident at 24 h, increased at 48 h
# Method: Immunoblotting—Cells (2×10^6) were plated in 6-well plates overnight. […] Parental hRS7 was used as a control for the ADC. Cells were lysed in buffer containing 10 mM Tris, pH 7.4, 150 mM NaCl, protease inhibitors and phosphatase inhibitors (2 mM […], 10 mM NaF). A total of 20 μg protein was resolved in a 4-20% SDS polyacrylamide gel, transferred onto a nitrocellulose membrane and blocked by 5% non-fat milk in 1×TBS-T (Tris-buffered saline, 0.1% Tween-20) for 1 h at room temperature. Membranes were probed overnight at 4° C. with primary antibodies followed by 1-h incubation with antirabbit secondary antibody (1:2500) at room temperature. Signal detection was done using a chemiluminescence kit (Supersignal West Dura, Thermo Scientific; Rockford, IL) with the membranes visualized on a Kodak Image Station […]. Primary antibodies p21Waf1/Cip1 (Cat. No. 2947), Caspase-3 (Cat. No. 9665), Caspase-7 (Cat. No. 9492), Caspase-9 (Cat. No. 9502), PARP (Cat. No. 9542), 3-actin (Cat. No. 4967), pJNK1/2 (Cat. No. 4668), JNK (Cat. No. 9258), and goat anti-rabbit-HRP secondary antibody (Cat. No. 7074) were obtained from Cell Signal Technology (Danvers, MA).
# BxPC-3 = assay: Cytotoxicity (MTS), Example 6, BxPC-3; format: cell-based, human; details: BxPC-3, 96 h
# Method: One day prior to adding the ADCs, cells were harvested from tissue culture and plated into 96-well plates. […] Plates were incubated at 37° C. for 96 h. […] Growth inhibition was measured as a percent of growth relative to untreated cells using Microsoft Excel and Prism software (non-linear regression to generate sigmoidal dose response curves which yield IC50-values.
# PC-3 = assay: In vitro cytotoxicity, PC-3
# Text: Cell lines, antibodies, and chemotherapeutics—All human cancer cell lines used in this study were purchased from the American Type Culture Collection.
substance,measurement,setting,value
IMMU-132,shrinkage of target left lung mass,"small-cell lung cancer; 18 mg/kg once every three weeks, after fifth infusion",13%
same,reduction of brain metastasis,small-cell lung cancer; after another 3 months,21%
same,reduction of left lung mass,small-cell lung cancer; after another 3 months,25%
same,reduction of brain metastasis,small-cell lung cancer; after fifth infusion,10%
same,adverse events after second dose,small-cell lung cancer; in vivo,hypotension and a Grade 2 neutropenia
same,very well tolerated human equivalent dose,[1],~40 mg/kg
same,tumor growth vs untreated and hA20-CL2A-SN-38,Capan-1 tumors,significantly inhibited tumor growth
same,tumor-free mice at end of study,Capan-1 tumors; day 140,50%
same,PARP cleavage,PARP,mediated PARP cleavage
same,pIC50,BxPC-3,8.59
same,pIC50,PC-3,8.37
same,patients with long-term stable disease,metastatic PDC; 8/13 PDC patients,62%
same,"median TTP, CT assessable patients",metastatic PDC; 8.0 weeks estimated from last prior therapy,12.7 wks
same,"stable disease, number of patients",metastatic PDC; 13 assessable patients,8
same,response,metastatic PDC; case,stable disease by CT RECIST criteria
same,CA19-9 after treatment,"metastatic PDC; case, from 15885 U/mL",4418 U/mL
same,"Alopecia (Grades 1-2), patients",metastatic PDC; in vivo,5 of 9
same,Grade 3-4 nausea or vomiting,metastatic PDC; in vivo,no patient
same,Phase 2 dose,metastatic PDC; in vivo,8 to 10 mg/kg
same,"median TTP, all 14 patients",metastatic PDC; in vivo,11.9 wks
same,neutropenia ≥G3,metastatic PDC; in vivo,33%
same,patients with Grade 3 diarrhea,metastatic PDC; in vivo,Two
same,"progressive disease by RECIST, patients",metastatic PDC; in vivo,Five
same,maximum decline in CA19-9,"metastatic PDC; person, 8 mg/kg days 1 and 8 of 21 day cycle",72%
